These results are taken from patent US20230220346A1, “BIOLOGICALLY SYNTHESIZED HYDROXYAPATITE FOR BONE REGENERATION AND TISSUE ENGINEERING” (BIOVENTURES, LLC, priority 2019, published 2023).

The subject of assay [1] is MG-63 and Saos-2 cell lines. In words: Alizarin Red S biomineralization assay: phosphate source comparison, titration, ascorbic acid (FIG. 1A, 1C, 1E-G). To be noted: for biomineralization with the substance as organic phosphate source: substituted for βGP, 2 mM, with ALP, FIG. 1B,C; for dose dependence of biomineralization (titration assays): FIG. 1E-G. In kind it is cell-based, human. Here is the method:
(§1) Biomineralization assays and Alizarin Red S staining: All human and mouse cell lines and human peripheral blood mononuclear cells (MNCs) were maintained in MEMα/10% FBS with penicillin/streptomycin and glutamine in a 37° C. humidified incubator with 5% CO2. […] The medium was replaced after 4 days. Alizarin Red S staining was performed at room temperature by removing the culture medium, washing the cells twice with 1×PBS (pH 7.4), fixing the cells in 10% neutral buffered formalin (Richard-Allan Scientific, Kalamazoo, Mich., USA) for 30 min, rinsing twice with Milli-Q water, staining with Alizarin Red S for 30 min, and destaining twice in Milli-Q water. A ZEISS inverted fluorescence/brightfield microscope equipped with an Infinity 3 digital camera and software system was used for imaging.

For the next assay, the system named is Saos-2 cell line. The assay can be described thus: Alizarin Red S (ARS) biomineralization assay in Saos-2. Format: cell-based, human. To be noted: for biomineralization (Alizarin Red S staining): MEMα/10% FBS plus the supplement only, no ALP added, 7 days. How it is done: as §1
Assay [2] deals with human blood mononuclear cells (MNCs). In words: Alizarin Red S biomineralization assay in human blood mononuclear cells. In kind it is cell-based. The conditions noted are these: MEMα/10% FBS with αGP alone or CIP alone (the other missing), 7 days. How it is done: as §1
Coating cell culture plate with Collagen Type I, rat tail for mineralization assays: To coat a 48-well plate with Collagen Type I at 5 μg/cm^2, the stock solution was diluted to 25 μg/mL in 17.5 mM of acetic acid and aliquoted […] into each well. After incubating at room temperature for one hour, the Collagen Type I solution was removed. Each well was rinsed with 1×PBS (pH 7.4) and air-dried at room temperature. Human blood MNCs were suspended in the conditioned media and distributed into each well (1×10^5 cell/well) prior to a 7-day incubation. […]

In another assay the test system is MG-63 cell line. The assay can be described thus: Alizarin Red S (ARS) biomineralization assay in MG-63. Format: cell-based, human. The conditions noted are these: MEMα/10% FBS plus the supplement only, no ALP added, 7 days. How it is done: as §1

With `O=P(O)(O)OCC(O)CO` (stereo not drawn) [NSC 9231, glycerophosphoric acid], the “biomineralization with the substance as organic phosphate source” value in assay [1] is on record as “did not occur”.
Take `[Ca+2]` [Ca^2+, calcium ions]: in assay [1], the “dose dependence of biomineralization (titration assays)” value is reported as “depended on the doses”.
Take `NCCC(O)(P(=O)(O)O)P(=O)(O)O` [pamidronate]: in assay [1], the “biomineralization with the substance as organic phosphate source” value is “did not occur”.
As for `O.O=P([O-])([O-])OCC(O)CO.[Na+].[Na+]` (stereo not drawn) [αGP, Disodium α-glycerophosphate hydrate], the “incubation time until biomineralization occurred at cytoplasmic membrane and cytosol” value in the assay with Saos-2 cell line (MEMα/10% FBS with 2 mM αGP) is listed as no more than 24 h. Further, in assay [2], the “biomineralization (Alizarin Red S staining)” value is “did not occur”. Further, in assay [1], the “dose dependence of biomineralization (titration assays)” value is listed as “depended on the doses”. For the same compound, the “relative efficiency of phosphoester salts in eliciting biomineralization” value in assay [1] (compared to βGP and PEP, FIG. 1C) is reported as “most efficient”.
For the compound `O=C1O[C@H]([C@@H](O)CO)C(O)=C1O` [Vit. C, Ascorbic acid], the “biomineralization (Alizarin Red S staining)” value in the assay with Saos-2 cell line and in the assay with MG-63 cell line was “No mineralization” in each case. The “need of ascorbic acid for biomineralization” value in assay [1] (MEMα with or without ascorbic acid, FIG. 1A and FIG. 8) was “unnecessary or even deleterious”.
For `O=P([O-])([O-])OC(CO)CO.[Na+].[Na+]` [βGP, disodium β-glycerophosphate], the results for the “biomineralization (Alizarin Red S staining)” value in the assay with Saos-2 cell line and in the assay with MG-63 cell line were “could mineralize” and “could not”, respectively.
